Read-outs that look alike come from different tables or passages of the source.
Assays:
[1] = DMCM-induced seizures in vivo; conditions: read-out: DMCM-ind. seizures (ED50, mg/kg)
Text: (§1) The methods both for the above in vitro examination of the compounds and the method used for DMCM-induced seizures in vivo are summarized in the European Journal of Pharmacology, 1993, 224, 221-228.

[2] = molecular target: T1, adenosine A2 receptor (Rattus norvegicus, UniProt P30543); assay: in vitro binding to adenosine A2 receptor ([3H]-CGS 21680)
T1 construct: from tissue
T1 sequence (P30543 whole entry): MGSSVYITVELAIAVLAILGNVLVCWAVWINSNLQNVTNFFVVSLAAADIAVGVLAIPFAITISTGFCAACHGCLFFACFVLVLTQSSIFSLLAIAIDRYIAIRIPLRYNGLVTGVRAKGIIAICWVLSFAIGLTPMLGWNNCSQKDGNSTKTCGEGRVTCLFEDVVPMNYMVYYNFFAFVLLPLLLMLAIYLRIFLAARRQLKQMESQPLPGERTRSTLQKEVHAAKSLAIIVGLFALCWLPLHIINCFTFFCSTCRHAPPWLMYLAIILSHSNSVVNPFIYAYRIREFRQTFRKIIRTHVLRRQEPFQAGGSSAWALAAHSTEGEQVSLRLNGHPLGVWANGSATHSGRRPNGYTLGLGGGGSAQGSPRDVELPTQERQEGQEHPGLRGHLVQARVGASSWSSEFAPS
Text: (§2) Evaluation of in vitro binding to adenosine A1 and A2 receptors.
as §1

[3] = molecular target: T2, adenosine A1 receptor (Rattus norvegicus, UniProt P25099); assay: in vitro binding to adenosine A1 receptor ([3H]-R-PIA); conditions: for Ki: radioligand [3H]-R-PIA; for Ratio A2/A1: ratio of A2 to A1 receptor binding Ki
T2 construct: from tissue
T2 sequence (P25099 1-326): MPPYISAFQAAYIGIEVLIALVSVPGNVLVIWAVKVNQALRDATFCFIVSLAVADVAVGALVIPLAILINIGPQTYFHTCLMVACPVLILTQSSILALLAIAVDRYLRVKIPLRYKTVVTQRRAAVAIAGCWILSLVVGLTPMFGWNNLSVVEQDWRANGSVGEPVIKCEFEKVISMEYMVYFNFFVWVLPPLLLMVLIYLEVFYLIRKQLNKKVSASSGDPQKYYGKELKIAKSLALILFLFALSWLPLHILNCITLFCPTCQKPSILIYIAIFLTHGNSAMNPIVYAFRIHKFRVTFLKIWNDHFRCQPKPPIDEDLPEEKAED
Text: as §2, §1

[4] = system: A1 receptor; conditions: literature, qualitative; cited from earlier work
[5] = ED50, DMCM-induced seizures in vivo
[6] = radioligand [3H]-CGS 21680, read-out: A2 Receptor Binding (Ki)

Compound | ED50 [1, 5] [mg/kg] | Ki [2, 6] [nM] | Ki [3] [nM] | Ratio A2/A1 [3] | ED50 [1] [mg/kg] | Ki [2] [nM] | selectivity for the A1 receptor over the A2 receptor (in words) [4]
CN(C)Nc1nc(Cl)nc2c1ncn2[C@@H]1O[C@H](CCl)[C@@H](O)[C@H]1O [Example 11, 2,5'-Dichloro-5'-deoxy-N-(dimethylamino)adenosine] | 4.7 | 6600 | 11 | 600 |  |  | 
OC[C@H]1O[C@@H](n2cnc3c(NC4CCCC4)ncnc32)[C@H](O)[C@@H]1O [CPA, N-(cyclopentyl)adenosine, reference compound] |  |  |  |  | 0.2 | 192 | 
CONc1nc(Cl)nc2c1ncn2[C@@H]1O[C@H](CCl)[C@@H](O)[C@H]1O [Example 12, 2,5'-Dichloro-5'-deoxy-N-methoxyadenosine] | 6.1 | 4660 | 74 | 63 |  |  | 
O[C@@H]1[C@H](O)[C@@H](CCl)O[C@H]1n1cnc2c(NN3CCCCC3)nc(Cl)nc21 [Example 1, 2,5'-Dichloro-5'-deoxy-N-(1-piperidinyl)adenosine] | 0.4 | 2740 | 6.4 | 428 |  |  | 
C[C@H](Cc1ccccc1)Nc1ncnc2c1ncn2[C@@H]1O[C@H](CO)[C@@H](O)[C@H]1O [R-PIA, (R)-N-(1-phenyl-2-propyl)adenosine, reference compound] |  |  |  |  | 0.5 |  | 
OC[C@H]1O[C@@H](n2cnc3c(NC4CCCC4)nc(Cl)nc32)[C@H](O)[C@@H]1O [CCPA, 2-chloro-N-cyclopentyladenosine] |  |  |  |  |  |  | most selective for the A1 receptor over the A2 receptor
O[C@@H]1[C@H](O)[C@@H](CF)O[C@H]1n1cnc2c(NN3CCCCC3)nc(Cl)nc21 [Example 18, 2-Chloro-5'-deoxy-5'-fluoro-N-(1-piperidinyl)adenosine] | 1 | 2420 | 5.3 | 457 |  |  | 

From patent publication US5589467A, “2,5',N6-trisubstituted adenosine derivatives” (Novo Nordisk A/S, priority 1993, dated 1996)
